In patent publication US9174980B2, “Heterocyclic compounds as inhibitors of leukotriene production” (Boehringer Ingelheim International GmbH, priority 2012, dated 2015):

Legend:
[1] = test system: synthesis of LTB4 in human whole blood; experiment: Human whole blood assay (calcimycin-stimulated LTB4 synthesis); assay type: cell-based; conditions: Homo sapiens; read-out: Human Whole Blood LTB4 Assay for FLAP (IC50 nM)
Method: Compounds are additionally tested in a human whole blood assay to determine their ability to inhibit the synthesis of LTB4 in a cellular system. Compounds are combined with heparinized human whole blood and incubated for 15 minutes at 37° C. Calcimycin (20 μM final, prepared in phosphate-buffered saline, pH 7.4) is then added and the mixture is incubated for another 30 minutes at 37° C. The samples are centrifuged for 5 min at low speed (1500×g) and the plasma layer is removed. Plasma LTB4 concentrations are then measured using an antibody-based homogenous time-resolved fluorescence method (CisBio, Bedford, Mass.).

[2] = target: T1, recombinant human FLAP protein (Homo sapiens, UniProt P20292); experiment: FLAP binding assay (Scintillation Proximity Assay, displacement of [125I]L-691,831); conditions: read-out: Human FLAP SPA Binding (IC50 nM)
T1 construct: made in house; host or cells: Sf9 insect cells (membrane fraction, 100,000 x g pellet)
T1 sequence (P20292 1-161): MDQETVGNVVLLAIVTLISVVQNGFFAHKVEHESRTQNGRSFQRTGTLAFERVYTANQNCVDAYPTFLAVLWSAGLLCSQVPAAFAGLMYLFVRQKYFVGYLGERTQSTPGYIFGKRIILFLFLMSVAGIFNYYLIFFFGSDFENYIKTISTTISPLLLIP
Method: Compounds are assessed for the ability to bind to FLAP in a binding assay that measures compound-specific displacement of an iodinated (^125I) FLAP inhibitor via a Scintillation Proximity Assay format (adapted from S. Charleson et al., Mol. Pharmacol., 1992, 41, 873-879).
Cell pellets produced from sf9 insect cells expressing recombinant human FLAP protein are resuspended in buffer A [15 mM Tris-HCl (pH 7.5), 2 mM MgCl2, 0.3 mM EDTA, 1 mM PMSF]. The cells are lysed with a Dounce homogenizer and the material is centrifuged at 10,000×g for 10 minutes. The supernatant is then collected and centrifuged at 100,000×g for 60 minutes. To prepare membrane protein for an assay, an aliquot of the 100,000×g pellet is resuspended in 1 ml of buffer A, Dounce homogenized, and finally subjected to polytron mixing (30 seconds). Membrane protein (25 μl, 5 μg) is mixed with WGA SPA beads (Amersham) and stirred for 1 h. To an assay plate (Perkin Elmer FlexiPlate) is added 25 μl of test compound prepared in Binding buffer [100 mM Tris (pH 7.5), 140 mM NaCl, 5% glycerol, 2 mM EDTA, 0.5 mM TCEP, 0.05% Tween 20], 25 μl of [^125I]L-691,831 (an iodinated analog of MK-591, Charleson et al. Mol. Pharmacol., 41, 873-879, 1992) and finally 50 μl of the bead/protein mixture. (final concentrations: beads, 200 μg/well; protein, 5 μg/well; [^125I] probe, 0.08 nM/well (17 nCi/well). The plates are shaken for 2 h before reading on a Microbeta plate reader. Non-specific binding is determined by the addition of 10 μM cold L-691,831 compound.

Row | Structure (SMILES) | IC50 [1] [nM] | IC50 [2] [nM]
1 | CC(C)C(C)(c1ccc(-c2cnc(N)nc2)cc1)c1cn(Cc2ccc(Cl)cc2)c2ccccc12 (centres unmarked) [Example 29, 5-(4-{2-[1-(4-chlorobenzyl)-1H-indol-3-yl]-3-methylbutan-2-yl}phenyl)pyrimidin-2-amine] | 2700 | 5.1
2 | CN(C)CCn1cc(-c2cc([C@](C)(c3ccc(-c4cnc(N)nc4)cc3)C3CC3)no2)cn1 [Example 30, 5-{4-[(1S)-1-cyclopropyl-1-(5-{1-[2-(dimethylamino)ethyl]-1H-pyrazol-4-yl}-1,2-oxazol-3-yl)ethyl]phenyl}pyrimidin-2-amine] | 1200 | 330
3 | Nc1ncc(-c2ccc(C3(c4c[nH]c5ccccc45)CCOCC3)cc2)cn1 [Example 33, 5-{4-[4-(1H-indol-3-yl)tetrahydro-2H-pyran-4-yl]phenyl}pyrimidin-2-amine] | > 5000 | 290
4 | CC(C)C(C)(c1ccc(-c2cnc(N)nc2)cc1)c1cn(Cc2ccc(Cl)cc2)c2ncccc12 (centres unmarked) [Example 34, 5-(4-{2-[1-(4-chlorobenzyl)-1H-pyrrolo[2,3-b]pyridin-3-yl]-3-methylbutan-2-yl}phenyl)pyrimidin-2-amine] | 460 | 3.4
5 | Nc1ncc(-c2ccc(C3(c4cn(Cc5ccccn5)c5ccccc45)CCOCC3)cc2)cn1 [Example 35, 5-(4-{4-[1-(pyridin-2-ylmethyl)-1H-indol-3-yl]tetrahydro-2H-pyran-4-yl}phenyl)pyrimidin-2-amine] | > 5000 | 150
6 | CC(C)C(C)(c1ccc(OCc2ccccn2)cc1)c1cn(C)c2cc(C(=O)O)ccc12 (centres unmarked) [Example 36, 23-[1,2-dimethyl-1-[4-(2-pyridylmethoxy)phenyl]propyl]-1-methyl-indole-6-carboxylic acid] | 1900 | 1.8
7 | CC(C)C(C)(c1ccc(OCc2ccccn2)cc1)c1cn(C)c2cc(C(=O)Nc3cccnn3)ccc12 (centres unmarked) [Example 37, 3-[1,2-dimethyl-1-[4-(2-pyridylmethoxy)phenyl]propyl]-1-methyl-N-pyridazin-3-yl-indole-6-carboxamide] | 150 | 1.4
8 | CC(C)C(C)(c1ccc(OCc2ccccn2)cc1)c1cn(C)c2cc(C(N)=O)ccc12 (centres unmarked) [Example 38, 3-[1,2-dimethyl-1-[4-(2-pyridylmethoxy)phenyl]propyl]-1-methyl-indole-6-carboxamide] | 240 | 1.4
9 | CC(C)C(C)(c1ccc(-c2cnc(N)nc2)cc1)c1cn(Cc2ccccn2)c2cccc(F)c12 (centres unmarked) [Example 40, 5-(4-{2-[4-fluoro-1-(pyridin-2-ylmethyl)-1H-indol-3-yl]-3-methylbutan-2-yl}phenyl)pyrimidin-2-amine] | 540 | 2.6
10 | Cn1nc(C(c2ccc(-c3cnc(N)nc3)cc2)C(C)(C)C)c2ccccc21 (centres unmarked) [Example 44, 5-[4-[2,2-dimethyl-1-(1-methylindazol-3-yl)propyl]phenyl]pyrimidin-2-amine] | > 5000 | 21
11 | CC(C)C(C)(c1ccc(-c2cnc(N)nc2)cc1)c1cn(CCN2CCN(C)CC2)c2ccccc12 (centres unmarked) [Example 52, 5-[4-(3-methyl-2-{1-[2-(4-methylpiperazin-1-yl)ethyl]-1H-indol-3-yl}butan-2-yl)phenyl]pyrimidin-2-amine] | 2200 | 3.1
12 | COC(c1ccc(-c2cnc(N)nc2)cc1)(c1nn(C)c2ccccc12)C(C)(C)C (centres unmarked) [Example 53, 5-[4-[1-methoxy-2,2-dimethyl-1-(1-methylindazol-3-yl)propyl]phenyl]pyrimidin-2-amine] | > 5000 | 400

The remaining lines, values ahead:

Row | IC50 [1] [nM] | IC50 [2] [nM] | Structure (SMILES)
13 | 610 | 3.3 | CC(C)C(C)(c1ccc(-c2cnc(N)nc2)cc1)c1cn(Cc2ccccn2)c2ccccc12 (centres unmarked) [Example 28, 5-(4-{3-methyl-2-[1-(pyridin-2-ylmethyl)-1H-indol-3-yl]butan-2-yl}phenyl)pyrimidin-2-amine]
14 | 1200 | 7.1 | CC(C)C(C)(c1ccc(-c2cnc(N)nc2)cc1)c1cn(C)c2ccc(F)cc12 (centres unmarked) [Example 31, 5-{4-[2-(5-fluoro-1-methyl-1H-indol-3-yl)-3-methylbutan-2-yl]phenyl}pyrimidin-2-amine]
15 | 650 | 3.3 | CC(C)C(C)(c1ccc(-c2cnc(N)nc2)cc1)c1cn(C)c2ccccc12 (centres unmarked) [Example 32, 5-{4-[3-methyl-2-(1-methyl-1H-indol-3-yl)butan-2-yl]phenyl}pyrimidin-2-amine]
16 | 290 | 3.3 | CC(C)C(C)(c1ccc(-c2cnc(N)nc2)cc1)c1cn(C)c2ncccc12 (centres unmarked) [Example 39, 5-{4-[3-methyl-2-(1-methyl-1H-pyrrolo[2,3-b]pyridin-3-yl)butan-2-yl]phenyl}pyrimidin-2-amine]
17 | 1300 | 3.4 | CC(C)C(C)(c1ccc(-c2cnc(N)nc2)cc1)c1cn(Cc2ccccn2)c2c(F)cccc12 (centres unmarked) [Example 41, 5-(4-{2-[7-fluoro-1-(pyridin-2-ylmethyl)-1H-indol-3-yl]-3-methylbutan-2-yl}phenyl)pyrimidin-2-amine]
18 | 170 | 2.5 | CC(C)C(C)(c1ccc(-c2cnc(N)nc2)cc1)c1c[nH]c2ccccc12 (centres unmarked) [Example 42, 5-{4-[2-(1H-indol-3-yl)-3-methylbutan-2-yl]phenyl}pyrimidin-2-amine]
19 | 1500 | 30 | Cc1cn(C(C)(c2ccc(-c3cnc(N)nc3)cc2)C(C)C)c2ccccc12 (centres unmarked) [Example 43, 5-{4-[3-methyl-2-(3-methyl-1H-indol-1-yl)butan-2-yl]phenyl}pyrimidin-2-amine]
20 | 260 | 1.4 | COc1cccc2c(C(C)(c3ccc(-c4cnc(N)nc4)cc3)C(C)C)c[nH]c12 (centres unmarked) [Example 45, 5-{4-[2-(7-methoxy-1H-indol-3-yl)-3-methylbutan-2-yl]phenyl}pyrimidin-2-amine]
21 | > 5000 | 4.6 | CC(C)C(C)(c1ccc(-c2cnc(N)nc2)cc1)c1cn(CC(=O)O)c2ncccc12 (centres unmarked) [Example 47, (3-{2-[4-(2-aminopyrimidin-5-yl)phenyl]-3-methylbutan-2-yl}-1H-pyrrolo[2,3-b]pyridin-1-yl)acetic acid]
22 | 810 | 2 | CC(C)C(C)(c1ccc(-c2cnc(N)nc2)cc1)c1cn(Cc2ccccn2)c2cc(F)ccc12 (centres unmarked) [Example 49, 5-(4-{2-[6-fluoro-1-(pyridin-2-ylmethyl)-1H-indol-3-yl]-3-methylbutan-2-yl}phenyl)pyrimidin-2-amine]
23 | > 5000 | 260 | COc1cccc2c1c(C(C)(c1ccc(-c3cnc(N)nc3)cc1)C(C)C)cn2Cc1ccccn1 (centres unmarked) [Example 50, 5-(4-{2-[4-methoxy-1-(pyridin-2-ylmethyl)-1H-indol-3-yl]-3-methylbutan-2-yl}phenyl)pyrimidin-2-amine]
24 | 840 | 2.7 | COc1cccc2c(C(C)(c3ccc(-c4cnc(N)nc4)cc3)C(C)C)cn(Cc3ccccn3)c12 (centres unmarked) [Example 51, 5-(4-{2-[7-methoxy-1-(pyridin-2-ylmethyl)-1H-indol-3-yl]-3-methylbutan-2-yl}phenyl)pyrimidin-2-amine]
25 | 840 | 8.3 | CC(C)C(C)(c1ccc(-c2cnc(N)nc2)cc1)c1c[nH]c2cc(OC3CCOC3)ccc12 (centres unmarked) [Example 54, 5-(4-{3-methyl-2-[6-(tetrahydrofuran-3-yloxy)-1H-indol-3-yl]butan-2-yl}phenyl)pyrimidin-2-amine]
